Two molecules from patent US20250090510A1, “eIF4G1-eIF1 INHIBITORS AND USE THEREOF” (YEDA RESEARCH AND DEVELOPMENT CO. LTD., priority 2022, published 2025) can be followed below.

Test [1] concerns the target T1, eIF4G1 binding to eIF4E-cap complex (Homo sapiens, UniProt Q04637).
T1 construct: endogenous in cells; host or cells: HEK293T
The experiment in a line: Cap-binding assay on m7GTP cap-analog agarose beads. The class given is cell-based. To be noted: HEK293T; i14G1-10 20 μM, i14G1-12 10 μM; 4 hours. Here is the method:
(§1) FIGS. 2A-C: The effect of i14G1-10 and i14G1-12 on eIF1-eIF4G1 and eIF4E-eIF4G1 complexes. (2A-B) HA-eIF1 and HA-eIF4E were each transfected into HEK293T cells and 48 h after transfection cells were treated with DMSO or i14G1-10 (2A) or i14G1-12 (2B) for 4 h, followed by immunoprecipitation of HA-eIF1 or HA-eIF4E using anti-HA-agarose beads. Western blot was run to check co-immunoprecipitation of endogenous eIF4G1 with HA-eIF1 or HA-eIF4E. The graphs represent the co-immunoprecipitation of eIF4G1 with HA-eIF1 (right) or HA-eIF4E (left). Co—IP data shown as mean±SEM of 4-7 independent experiments. The asterisks denote statistically significant difference compared to DMSO, according to Student's t-tests (one-tailed, paired). *p<0.05. (2C) HEK293T cells were treated with DMSO, i14G1-10, or i14G1-12 for 4 h, followed by cell lysis. Respective cell lysates were incubated with cap analog (γ-Aminohexyl-m7GTP) beads for 2 h to precipitate bound eIF4E. Western blot was performed to check co-precipitation of eIF4G1 along with eIF4E on the cap-analog beads. The graph represents the binding fraction of eIF4G1 and eIF4E to the cap-analog beads (mean±SEM) with DMSO (black), i14G1-10 (blue), and i14G1-12 (red), n=6. The asterisks denote statistically significant difference compared to DMSO, according to Student's t-tests (one-tailed, paired). *p<0.05; **p<0.01.
Cap-binding Assay. […]

Test [2] deals with T2, eIF4E-eIF4G1 complex (Homo sapiens, UniProt Q04637).
T2 construct: co-immunoprecipitation of endogenous eIF4G1 in HEK293T cells expressing HA-eIF1 or HA-eIF4E was performed; endogenous in cells; host or cells: HEK293T (eIF4G1 endogenous; HA-eIF4E transfected)
The experiment in a line: Co-immunoprecipitation of endogenous eIF4G1 with HA-eIF4E. The class given is cell-based. To be noted: HEK293T; i14G1-10 20 μM, i14G1-12 10 μM; 4 h. The method, then: as §1
Co-immunoprecipitation. HEK293T cells were transfected with 5 μg of HA-eIF1 or HA-eIF4E plasmids along with 10 ng GFP plasmid to check for transfection efficiency using Jetprime reagent as per manufacturer's protocol. After 48 h, HA-eIF1 and HA-eIF4E expressing HEK293T cells were incubated with DMSO, i14G1-10 (20 μM), and […] (10 μM). 4 h later, cells were lysed using IP buffer (20 mM Tris pH8, 125 mM NaCl, 10% glycerol, 50 mM NaF, 1 mM […], 0.5% NP-40, and 0.2 mM EDTA) supplemented with fresh protease inhibitor cocktail (1:100) and PMSF 200 μM (1:100). Protein extract was taken for immunoprecipitation using either monoclonal anti-HA-agarose antibody (Sigma) or control IgG antibody in IP buffer, at 4° C. for 2 hours. […]

T2 sequence (Q04637 whole entry): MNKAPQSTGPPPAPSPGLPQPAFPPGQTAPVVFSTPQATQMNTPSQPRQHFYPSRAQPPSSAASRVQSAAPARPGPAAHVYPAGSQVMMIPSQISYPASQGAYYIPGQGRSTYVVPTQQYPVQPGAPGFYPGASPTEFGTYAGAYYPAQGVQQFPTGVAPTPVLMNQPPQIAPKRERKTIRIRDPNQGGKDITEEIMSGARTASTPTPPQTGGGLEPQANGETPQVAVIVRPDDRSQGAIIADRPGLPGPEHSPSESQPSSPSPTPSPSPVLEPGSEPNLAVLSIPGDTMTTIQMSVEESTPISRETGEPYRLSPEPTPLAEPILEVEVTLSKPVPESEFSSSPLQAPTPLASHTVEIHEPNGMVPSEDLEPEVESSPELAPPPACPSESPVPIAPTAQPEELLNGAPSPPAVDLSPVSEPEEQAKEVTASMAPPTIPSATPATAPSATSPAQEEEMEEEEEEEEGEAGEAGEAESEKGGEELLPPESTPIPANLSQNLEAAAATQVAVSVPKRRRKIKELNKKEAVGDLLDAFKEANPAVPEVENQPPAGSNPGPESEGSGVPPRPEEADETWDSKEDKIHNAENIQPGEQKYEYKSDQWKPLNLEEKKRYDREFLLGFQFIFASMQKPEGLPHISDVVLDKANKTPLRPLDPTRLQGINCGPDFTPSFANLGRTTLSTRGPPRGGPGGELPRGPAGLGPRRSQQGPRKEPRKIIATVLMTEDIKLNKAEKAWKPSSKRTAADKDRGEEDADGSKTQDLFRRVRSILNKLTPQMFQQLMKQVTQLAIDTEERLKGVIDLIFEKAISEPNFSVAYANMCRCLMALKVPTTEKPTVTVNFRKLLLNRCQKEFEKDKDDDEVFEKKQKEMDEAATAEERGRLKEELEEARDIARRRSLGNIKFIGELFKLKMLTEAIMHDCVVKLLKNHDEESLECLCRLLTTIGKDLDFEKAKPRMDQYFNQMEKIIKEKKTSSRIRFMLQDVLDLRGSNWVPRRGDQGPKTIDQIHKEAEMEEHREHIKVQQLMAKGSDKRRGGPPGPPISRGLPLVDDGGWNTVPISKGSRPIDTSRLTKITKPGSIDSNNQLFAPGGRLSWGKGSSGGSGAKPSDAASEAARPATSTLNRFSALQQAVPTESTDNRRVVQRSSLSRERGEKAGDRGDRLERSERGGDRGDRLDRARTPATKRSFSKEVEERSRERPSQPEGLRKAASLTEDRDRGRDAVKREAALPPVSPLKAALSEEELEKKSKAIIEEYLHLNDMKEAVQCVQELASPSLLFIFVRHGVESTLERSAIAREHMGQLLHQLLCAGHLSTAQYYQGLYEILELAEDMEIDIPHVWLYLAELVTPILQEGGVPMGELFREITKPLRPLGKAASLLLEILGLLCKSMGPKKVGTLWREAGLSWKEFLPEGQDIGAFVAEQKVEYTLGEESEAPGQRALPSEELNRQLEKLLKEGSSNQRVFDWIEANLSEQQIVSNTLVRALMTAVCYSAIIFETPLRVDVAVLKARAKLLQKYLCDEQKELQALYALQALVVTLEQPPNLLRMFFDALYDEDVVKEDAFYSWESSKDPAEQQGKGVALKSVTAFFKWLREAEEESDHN
T2 sequence (P06730 whole entry partner): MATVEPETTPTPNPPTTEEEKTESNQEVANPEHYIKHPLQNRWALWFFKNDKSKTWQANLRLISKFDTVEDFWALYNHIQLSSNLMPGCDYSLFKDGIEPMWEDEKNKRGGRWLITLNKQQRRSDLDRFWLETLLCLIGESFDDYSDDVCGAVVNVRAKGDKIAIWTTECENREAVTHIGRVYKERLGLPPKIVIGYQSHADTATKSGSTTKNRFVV
T1 sequence (Q04637 whole entry): as the sequence (Q04637 whole entry) above
T1 sequence (P06730 2-217 partner limits assumed): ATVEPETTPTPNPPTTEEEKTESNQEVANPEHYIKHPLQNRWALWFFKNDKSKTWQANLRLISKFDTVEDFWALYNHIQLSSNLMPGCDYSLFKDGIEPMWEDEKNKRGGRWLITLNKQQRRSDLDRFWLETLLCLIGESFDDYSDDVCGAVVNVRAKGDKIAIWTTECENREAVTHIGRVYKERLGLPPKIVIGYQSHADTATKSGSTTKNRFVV

`O=C(/C=C/Sc1ccc(C(F)(F)F)cn1)c1ccccc1` [i14G1-10]: the “enhancement of eIF4G1 binding to eIF4E-cap complex” value in test [1] turned out to be 1.8 folds. Moreover, in test [2], the “enhancement of eIF4G1 binding to HA-eIF4E” value is listed as “dramatic enhancement”.

Take `Cn1ccnc1S/C(=C/C=C(C#N)C#N)c1ccc(Cl)cc1` [i14G1-12]: in test [1], the “enhancement of eIF4G1 binding to eIF4E-cap complex” value is “no significant effect”. In test [2], the “enhancement of eIF4G1 binding to HA-eIF4E” value was “not significant”.
